From patent US9937180B2, “Constrained tricyclic sulfonamides” (ICAHN SCHOOL OF MEDICINE AT MOUNT SINAI, priority 2014, dated 2018) come the findings set out here.

One series relates to H1650. Description: H1650 Cell Viability Assays (GI50 Determination), MTT. Type of series: cell-based. Particulars: Homo sapiens, NCI-H1650, H1650 cells, 48 hours after drug treatment. On the procedure:
H1650 Cell Viability Assays (GI50 Determination)
Cell viability assays were performed according to Denizot, F. and R. Lang, Rapid colorimetric assay for cell growth and survival: Modifications to the tetrazolium dye procedure giving improved sensitivity and reliability Journal of Immunological Methods, 1986. 89[…]: p. 271-277.
Cells were plated at 150,000 cells per well in a 12 well plate. Twenty-four hours after plating, cells were treated as described with increasing concentrations of drug and control. Forty-eight hours after drug treatment, cells were treated with 100 uL of 3-(4,5-Dimethylthiazol-2-yl)-2,5-diphenyltetrazolium bromide (MTT) and incubated for 2 hours at 37 C. The MTT solution was subsequently replaced with 300 uL of n-propyl alcohol and re-aliquoted to a 96 well plates. Spectrophotometric analysis of each solution was performed using a 96 well plate reader at 600 nm in triplicate.

The next series concerns Molt4 cells. The series can be described thus: MTS Cell Proliferation Assay (CellTiter96 AQueous). The conditions noted are these: Homo sapiens, MOLT-4, 48 hours, average of 3 biological replicates. Type of series: cell-based. The protocol:
MTS Cell Proliferation Assay GI50 for Example 3a and 3b for Molt4 cells was measured using the CellTiter96 AQueous Non-Radioactive Cell Proliferation Assay (Promega). Briefly, two technical replicates of 1×10^5 cells suspended in 50 μL RPMI-1640 media were pipetted per well into a 96-well plate for each condition. An equal volume of Example 3a or 3b was dissolved in media or vehicle control (DMSO) was added to each well for final concentration of 0, 5, 10, 15, 20, 30, 40, or 80 μM of 3a or 3b. Cells were allowed to grow for 48 hours at 37° C. with 5% CO2, after which 20 μL of MTS/PMS solution was added to each well and cells were incubated for an additional 4 hrs. At the end of the incubation period, A490 was read on a Biotek uQuant spectrophotometer to measure formazen production. Relative viability was calculated as A490 for each drug condition relative to vehicle alone.

The nature of series [1]: Observation for signs of toxicity and body weights in the mouse tumor assay. Type of series: in vivo. The conditions noted are these: mice, 100 mg/kg BID oral, 31 days. The protocol:
(§1) To assess the in vivo effects of the compounds, subcutaneous xenograft of prostate cancer cell line LNCaP was generated. Cells (5×10^6, 0.1 mL in 1:1 Matrigel:Media) were injected into the right flank of 8-week-old male SCID nude castrated mice (NCI). Tumor volume was assessed three times a week by caliper measurement. Mice were randomized to treatment groups based on initial tumor volume average of 247 mm^3 per group. Mice were dosed by oral gauvage with 100 mg/kg of Example 3a twice daily (BID) as a suspension in 0.1% Tween80/0.5% sodium carboxymethylcellulose (CMC) in water. […] Mouse body weights were recorded weekly and percentage of mice body weights during treatment was calculated as: weight at each time point/initial weight×100. […] Mice underwent treatment for 31 days and were sacrificed 2 hours after the last dose. Tumors were then excised and cut for both formalin-fixation and snap frozen in liquid nitrogen. No statistically significant toxicity was observed as judged from animal body weights of compound treated groups versus vehicle control group.

Series [2] has as its system prostate cancer cell line LNCaP. Description: Mouse Tumor Assay: subcutaneous xenograft of prostate cancer cell line LNCaP. Format: in vivo. The conditions noted are these: LNCaP xenograft in male SCID nude castrated mice, 100 mg/kg BID oral gavage. On the procedure:
as §1, with “Mouse Tumor Assay To” for “To”

SMILES strings stand for the structures. Where “and” joins values, the source holds several entries; their conditions need not be identical. Equal entries are not always repeated.

On to `O=S(=O)(N[C@H]1CCC[C@@H](N2c3ccccc3CCc3ccccc32)[C@@H]1O)c1ccc(OC(F)(F)F)cc1` [Example 3a], for which the GI50 stood at 5 µM in the series with H1650 and 6 µM with Molt4 cells. The “signs of toxicity (mucous diarrhea, abdominal stiffness and weight loss)” value in series [1] was “no adverse signs were observed”. For the same compound, the Mean Tumor Volume(T) in series [2] (31 days) is 485 mm³. Further, the “% T/C” value in series [2] (end of experiment (31 days), tumor versus vehicle control, 100 mg/kg) is 35% and 34.6%.
